Test results published in patent US8076487B2, “Pyridone derivative and herbicide” (Kumiai Chemical Industry Co., Ltd., priority 2006, dated 2011).

Assays:
Assay type in all cases: in vivo
[1] = test system: heartshape false pickerelweed (Monochoria vaginalis (Burm.f.) C.Presl); assay: Test Example 1: herbicidal effect by soil application to paddy field; conditions: paddy field soil application; active ingredient 1,000 g per 1 hectare; wettable powder added dropwise to water surface the day after sowing; examined on the 21st day after application
How it was run: (§1)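 Under greenhouse conditions, seeds sown on puddled paddy soil in 100 cm2 pots under 3 cm of standing water received the test compound; injury was assessed with a standard scoring scheme three weeks (day 21) after treatment.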

[2] = test system: early watergrass (Echinochloa oryzicola Vasing); assay: as above; conditions: paddy field soil application; active ingredient 1,000 g per 1 hectare; wettable powder added dropwise to water surface the day after sowing; examined on the 21st day after application
How it was run: as §1

[3] = test system: Japanese bulrush (Scirpus juncoides Roxb.); assay: as above; conditions: paddy field soil application; active ingredient 1,000 g per 1 hectare; wettable powder added dropwise to water surface the day after sowing; examined on the 21st day after application
How it was run: as §1

[4] = test system: velvetleaf (Abutilon theophrasti medicus); assay: Test Example 3: herbicidal effect by application to upland field (foliage treatment); conditions: 14th day after application; for herbicidal effect, Velvetleaf: foliage treatment, 1,000 g active ingredient per 1 hectare, greenhouse; for herbicidal effect (index), Velvetleaf: foliage treatment, plants grown two weeks, 1,000 g active ingredient per hectare
How it was run: (§2)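 A single foliar application of a water-diluted wettable powder, at 1,000 g of active ingredient per hectare, was made to plants raised for two weeks from seed in field soil. Herbicidal activity was judged visually after a further 14 days in the greenhouse.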

[5] = test system: slender amaranth (Amaranthus viridis L.); assay: as above; conditions: 14th day after application; for herbicidal effect, Slender Amaranth: foliage treatment, 1,000 g active ingredient per 1 hectare, greenhouse; for herbicidal effect (index), Slender Amaranth: foliage treatment, plants grown two weeks, 1,000 g active ingredient per hectare
How it was run: as §2

[6] = test system: green foxtail (Setaria viridis (L.) P. Beauv.); assay: as above; conditions: 14th day after application; for herbicidal effect, Green Foxtail: foliage treatment, 1,000 g active ingredient per 1 hectare, greenhouse; for herbicidal effect (index), Green Foxtail: foliage treatment, plants grown two weeks, 1,000 g active ingredient per hectare
How it was run: as §2

[7] = test system: barnyardgrass (Echinochloa crus-galli (L.) P. Beauv. var. crus-galli); assay: as above; conditions: 14th day after application; for herbicidal effect, Barnyardgrass: foliage treatment, 1,000 g active ingredient per 1 hectare, greenhouse; for herbicidal effect (index), Barnyardgrass: foliage treatment, plants grown two weeks, 1,000 g active ingredient per hectare
How it was run: as §2

[8] = test system: velvetleaf (Abutilon theophrasti medicus); assay: Test Example 2: herbicidal effect by soil application to upland field; conditions: soil surface spray, upland field soil, 1,000 g active ingredient per hectare, 21st day after application
How it was run: (§3)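 Seeds were sown in field soil, covered, and the soil surface sprayed with a water-diluted wettable powder at 1,000 g active ingredient per hectare in 1,000 L/ha. Plants grew in a greenhouse, and herbicidal effect was rated against a standard scale 21 days after application.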

[9] = test system: slender amaranth (Amaranthus viridis L.); assay: as above; conditions: soil surface spray, upland field soil, 1,000 g active ingredient per hectare, 21st day after application
How it was run: as §3

[10] = test system: green foxtail (Setaria viridis (L.) P. Beauv.); assay: as above; conditions: soil surface spray, upland field soil, 1,000 g active ingredient per hectare, 21st day after application
How it was run: as §3

[11] = test system: barnyardgrass (Echinochloa crus-galli (L.) P. Beauv. var. crus-galli); assay: as above; conditions: soil surface spray, upland field soil, 1,000 g active ingredient per hectare, 21st day after application
How it was run: as §3

Compound	herbicidal effect, Monochoria vaginalis (Burm. f.) C. Presl [1]	herbicidal effect, Echinochloa oryzicola Vasing [2]	herbicidal effect, Scirpus juncoides Roxb. [3]	herbicidal effect, Velvetleaf [4]	herbicidal effect, Slender Amaranth [5]	herbicidal effect, Green Foxtail [6]	herbicidal effect, Barnyardgrass [7]	herbicidal effect (index), Velvetleaf [8]	herbicidal effect (index), Slender Amaranth [9]	herbicidal effect (index), Green Foxtail [10]	herbicidal effect (index), Barnyardgrass [11]	herbicidal effect (index), Velvetleaf [4]	herbicidal effect (index), Slender Amaranth [5]	herbicidal effect (index), Green Foxtail [6]	herbicidal effect (index), Barnyardgrass [7]
CCn1ncc(C(=O)c2ccc(C(F)(F)F)n(CC3CC(C)=NO3)c2=O)c1O (stereo not shown) [IV-107]	5 (90% or more of herbicidal effect and crop phytotoxicity)	5 (90% or more of herbicidal effect and crop phytotoxicity)	5 (90% or more of herbicidal effect and crop phytotoxicity)	5 (90% or more of herbicidal effect and crop phytotoxicity)	5 (90% or more of herbicidal effect and crop phytotoxicity)	5 (90% or more of herbicidal effect and crop phytotoxicity)	5 (90% or more of herbicidal effect and crop phytotoxicity)	5 (90% or more of herbicidal effect and crop phytotoxicity)	5 (90% or more of herbicidal effect and crop phytotoxicity)	5 (90% or more of herbicidal effect and crop phytotoxicity)	5 (90% or more of herbicidal effect and crop phytotoxicity)				
O=C1CCCC(O)=C1C(=O)c1ccc(C(F)(F)F)n(C2CCCC2)c1=O [I-18]	5 (90% or more of herbicidal effect and crop phytotoxicity)	5 (90% or more of herbicidal effect and crop phytotoxicity)	5 (90% or more of herbicidal effect and crop phytotoxicity)					5 (90% or more of herbicidal effect and crop phytotoxicity)	5 (90% or more of herbicidal effect and crop phytotoxicity)	5 (90% or more of herbicidal effect and crop phytotoxicity)	5 (90% or more of herbicidal effect and crop phytotoxicity)	5 (90% or more of herbicidal effect and crop phytotoxicity)	5 (90% or more of herbicidal effect and crop phytotoxicity)	5 (90% or more of herbicidal effect and crop phytotoxicity)	5 (90% or more of herbicidal effect and crop phytotoxicity)
CON=CCn1c(C(F)(F)F)ccc(C(=O)C2=C(O)CCCC2=O)c1=O [I-133]	5 (90% or more of herbicidal effect and crop phytotoxicity)	5 (90% or more of herbicidal effect and crop phytotoxicity)	5 (90% or more of herbicidal effect and crop phytotoxicity)	5 (90% or more of herbicidal effect and crop phytotoxicity)	5 (90% or more of herbicidal effect and crop phytotoxicity)	4 (70 to less than 90% of herbicidal effect and crop phytotoxicity)	5 (90% or more of herbicidal effect and crop phytotoxicity)	5 (90% or more of herbicidal effect and crop phytotoxicity)	5 (90% or more of herbicidal effect and crop phytotoxicity)	4 (70 to less than 90% of herbicidal effect and crop phytotoxicity)	5 (90% or more of herbicidal effect and crop phytotoxicity)				
COCCOCCn1c(C(F)(F)F)ccc(C(=O)C2=C(O)CCCC2=O)c1=O [I-34]	5 (90% or more of herbicidal effect and crop phytotoxicity)	5 (90% or more of herbicidal effect and crop phytotoxicity)	5 (90% or more of herbicidal effect and crop phytotoxicity)					5 (90% or more of herbicidal effect and crop phytotoxicity)	5 (90% or more of herbicidal effect and crop phytotoxicity)	5 (90% or more of herbicidal effect and crop phytotoxicity)	5 (90% or more of herbicidal effect and crop phytotoxicity)	5 (90% or more of herbicidal effect and crop phytotoxicity)	5 (90% or more of herbicidal effect and crop phytotoxicity)	5 (90% or more of herbicidal effect and crop phytotoxicity)	5 (90% or more of herbicidal effect and crop phytotoxicity)
CC(C)n1c(C(F)(F)F)ccc(C(=O)C2=C(O)CCCC2=O)c1=O [I-4]	5 (90% or more of herbicidal effect and crop phytotoxicity)	5 (90% or more of herbicidal effect and crop phytotoxicity)	5 (90% or more of herbicidal effect and crop phytotoxicity)					5 (90% or more of herbicidal effect and crop phytotoxicity)	5 (90% or more of herbicidal effect and crop phytotoxicity)	4 (70 to less than 90% of herbicidal effect and crop phytotoxicity)	5 (90% or more of herbicidal effect and crop phytotoxicity)	5 (90% or more of herbicidal effect and crop phytotoxicity)	5 (90% or more of herbicidal effect and crop phytotoxicity)	3 (50 to less than 70% of herbicidal effect and crop phytotoxicity)	5 (90% or more of herbicidal effect and crop phytotoxicity)
O=C1CCCC(O)=C1C(=O)c1cc(Br)c(C(F)F)n(-c2ccccc2)c1=O [I-224]	5 (90% or more of herbicidal effect and crop phytotoxicity)	5 (90% or more of herbicidal effect and crop phytotoxicity)	5 (90% or more of herbicidal effect and crop phytotoxicity)	5 (90% or more of herbicidal effect and crop phytotoxicity)	5 (90% or more of herbicidal effect and crop phytotoxicity)	5 (90% or more of herbicidal effect and crop phytotoxicity)	5 (90% or more of herbicidal effect and crop phytotoxicity)	5 (90% or more of herbicidal effect and crop phytotoxicity)	5 (90% or more of herbicidal effect and crop phytotoxicity)	5 (90% or more of herbicidal effect and crop phytotoxicity)	5 (90% or more of herbicidal effect and crop phytotoxicity)				
CCCS(=O)(=O)Oc1c(C(=O)c2ccc(C(F)(F)F)n(C3CC3)c2=O)cnn1C [IV-19]	5 (90% or more of herbicidal effect and crop phytotoxicity)	5 (90% or more of herbicidal effect and crop phytotoxicity)	5 (90% or more of herbicidal effect and crop phytotoxicity)	5 (90% or more of herbicidal effect and crop phytotoxicity)	5 (90% or more of herbicidal effect and crop phytotoxicity)	5 (90% or more of herbicidal effect and crop phytotoxicity)	5 (90% or more of herbicidal effect and crop phytotoxicity)	5 (90% or more of herbicidal effect and crop phytotoxicity)	5 (90% or more of herbicidal effect and crop phytotoxicity)	5 (90% or more of herbicidal effect and crop phytotoxicity)	5 (90% or more of herbicidal effect and crop phytotoxicity)				
O=C1CCCC(O)=C1C(=O)c1ccc(C(F)(F)F)n(-c2ccc(Br)cc2)c1=O [I-90]	5 (90% or more of herbicidal effect and crop phytotoxicity)	5 (90% or more of herbicidal effect and crop phytotoxicity)	5 (90% or more of herbicidal effect and crop phytotoxicity)					5 (90% or more of herbicidal effect and crop phytotoxicity)	5 (90% or more of herbicidal effect and crop phytotoxicity)	5 (90% or more of herbicidal effect and crop phytotoxicity)	5 (90% or more of herbicidal effect and crop phytotoxicity)	5 (90% or more of herbicidal effect and crop phytotoxicity)	5 (90% or more of herbicidal effect and crop phytotoxicity)	5 (90% or more of herbicidal effect and crop phytotoxicity)	5 (90% or more of herbicidal effect and crop phytotoxicity)
